Experimental data: patent US20220372014A1, “NEUROPROTECTIVE COMPOUNDS AND METHODS OF USE THEREOF” (The Johns Hopkins University, priority 2019, published 2022)

Assays:
PAAN/MIF = assay: In vitro PAAN/MIF nuclease assay (PS30 or RF substrate, PAGE gel, noncleaved substrate DNA); type: biochemical, human
Experimental: Nuclease assay. Purified PAAN/MIF protein (4 μM) was incubated with compounds (10 μM) in the nuclease buffer [10 mM Tris-C1 (pH 7.0) and 10 mM MgCl2] for 20 m on ice. Then samples were added with 1 μM of PAAN/MIF substrate (PS30 or RF) and incubated for 1 h at 37° C. The reaction was terminated with loading buffer containing 10 mM EDTA and separated on 15% TBE-urea polyacrylamide (PAGE) gel or 20% TBE PAGE gel.
(§1) Purification of PAAN/MIF recombinant proteins. Human PAAN/MIF (NM_002415) cDNA and its variants were subcloned into pGEX-6β-1 vector (GE Healthcare) and mutants were generated using a QuikChange site-directed mutagenesis kit (Stratagene). The sequences were confirmed by automated DNA sequencing. The protein was expressed and purified from Escherichia coli by glutathione sepharose (GE Healthcare). The GST tag was subsequently proteolytically removed. GST protein was used as a negative control in the nuclease assay and PAAN/MIF proteins purified by FPLC using Superdex 200 10/300GL column (GE Healthcare, Life Sciences) were also used in the nuclease assays.

mouse cortical neurons = assay: Pulsed-field gel electrophoresis of α-syn PFF-induced DNA damage in mouse cortical neurons; type: cell-based
Experimental: (§2) Preparation and quantification of genomic DNA. The striatum was rapidly removed from the brain and lysed by repetitive pipetting with a micropipette in lysis buffer [100 mM NaCl, 10 mM Tris-HCl (pH 8.0), 25 mM EDTA (pH 8.0), 0.5% SDS] with 0.2 mg/ml proteinase K (Roche Diagnotics). Samples were incubated 55° C. for overnight and further incubated 85° C. for 45 m to inactivate proteinase K. The genomic DNA were immediately separated on a 1.2% pulse field certified agarose in 0.5×TBE buffer with initial switch time of 1.5 s and a final switch time of 3.5 s for 12 h at 6 V/cm. The gel was then stained with […] Ethidium Bromide (EtBr) and visualized on UV light. Noncleaved genomic DNA was quantified as percentage (%) of the total genomic DNA that included both noncleaved genomic DNA and cleaved genomic DNA in each individual group.
Cell culture, transfection, primary neuronal culture and treatment. SH-SY5Y cells (ATCC) were cultured in DMEM containing 10% fetal bovine serum and penicillin/streptomycin at 37° C. under 5% C02. The cells were transfected using PolyFect reagent (Qiagen). Parthanatos was induced by the treatment of 50 μM MNNG for 15 min in SH-SY5Y cells. ABT-888 or PAAN/MIF inhibitors were pretreated with indicated concentration 1 h before MNNG treatment and cell death were assessed after 24 h. […]

PAAN/MIF WT or variants = assay: Biolayer interferometry (ForteBio Octet) binding assay; design: species or system human
Text: as §1
Biolayer interferometry assay. The dose-dependent binding of compound 121 for PAAN/MIF WT or PAAN/MIF variants were determined by a biolayer interferometry assay using Octet RED96 (ForteBio). See Guo et al. (2018) Nat. Chem. 11:254-63. All the proteins used in this assay were tagged with GST. Anti-GST biosensor tips (ForteBio) were used to immobilize the GST proteins after prewetting with 1X kinetic buffer (ForteBio). The equilibrated GST biosensors were loaded with PAAN/MIF WT or variants (25 μg/ml). Background binding controls were measured by sensors that were incubated in buffer without proteins. All assays were performed by a standard protocol in 96-well black plates (Greiner Bio) with a total volume of 200 μl per well. All the data were analyzed by Octet data analysis software.

calcineurin = assay: Calcineurin cellular activity assay in SH-SY5Y cells; type: cell-based; details: 1 μM, 6 h
Experimental: Calcineurin activity assay. Calcineurin activity was measured using a calcineurin cellular activity assay (Enzo Life Sciences) according to manufacturer's protocols. See Sangadala et al. (2019) Int. J. Mol. Sci. 20:1900. SH-SY5Y cells treated with FK506 or compound 121 were placed in a desalting column to remove excess phosphates and nucleotides. Total phosphate activity was determined in the samples by incubating with a calcineurin-specific substrate supplied in the manufacturer and measured by monitoring absorbance at 620 nm. Calcineurin activity was calculated as the difference between total phosphatase activity minus the phosphatase activity in the presence of 10 mM EGTA that blocks calcineurin activity.

[1] = test system: α-syn PFF injected WT mice; assay: Intrastriatal α-syn PFF mouse model (TH/Nissl stereology, HPLC of dopamine and DOPAC, pole test, grip strength test, pulsed-field gel, weight)
human cortical neurons = assay: Pulsed-field gel electrophoresis of α-syn PFF-induced DNA damage in human cortical neurons; type: cell-based
Experimental: as §2
Preparation of human cortical neurons. Human H1 embryonic stem cells (ESCs) were differentiated into cortical neurons as previously described. See Xu et al. (2016) Sci. Transl. Med. 8:333ra48. Briefly, ESC colonies detached from mouse embryonic fibroblasts (MEFs) were grown in suspension in human ESC medium without FGF2 for 6 days in low-attachment six-well plates (Corning). On day 7, free-floating embyroid bodies (EB)s were transferred to Matrigel coated plates to allow the complete attachment of EB and formation of rosette neuronal aggregates (RONAs). […]

[2] = both doses, 5 and 15 mg/kg/day oral, 5 months

| SMILES | nuclease activity of MIF 66-67A or MIF 97-99A mutants (PAAN/MIF; mutants K66A and I67A, N97A, Y98A and Y99A) | nuclease activity of PAAN/MIF 60-63A and PAAN/MIF N72A mutants (PAAN/MIF; mutants S60A, L61A, H62A and S63A (MIF 60-63A), N72A) | genomic DNA cleavage in mouse cortical neurons treated with α-syn PFF (mouse cortical neurons) | direct binding of PAAN/MIF WT and Y99A mutant (PAAN/MIF WT or variants) | direct binding of mutants L61A, N72A and 60-63A (PAAN/MIF WT or variants) | FK506 sensitive calcineurin activity (calcineurin) | tolerability (toxicity, weight) ([1]; 5 and 15 mg/kg/day oral, 5 months) | behavioral deficits (pole test, grip strength test) [1, 2] | loss of DA neurons (TH and Nissl stereology, TH immunoblot, HPLC of DA and DOPAC) [1, 2] | α-syn PFF-induced large scale genomic DNA cleavage in vivo ([1]; pulse gel electrophoresis) | genomic DNA cleavage in human cortical neurons treated with human α-syn PFF (human cortical neurons) |
| --- | --- | --- | --- | --- | --- | --- | --- | --- | --- | --- | --- |
| COc1ccc(CC[C@H]2OC(=O)[C@@H]3CCCCN3C(=O)C(=O)C(C)(C)COC(=O)C=CCCN(C)C(=O)[C@@H]3CCCN3C(=O)[C@H](COC(C)(C)C)N(C)C(=O)C(c3ccccc3)NC(=O)[C@H](C)N(C)C(=O)COc3cc(F)cc2c3)cc1OC (mixture of isomers) [compound 121] | remained sensitive to inhibition | became resistant | protected against genomic DNA cleavage | exhibited binding | remarkably decreased | failed to inhibit | no overt toxicity or weight loss | prevents | prevents the loss of DA neurons | significantly attenuated |  |
| COc1ccc(CC[C@H]2OC(=O)[C@@H]3CCCCN3C(=O)C(=O)C(C)(C)COC(=O)C=CCCN(C)C(=O)[C@@H]3CCCN3C(=O)[C@H](COC(C)(C)C)N(C)C(=O)C(c3ccccc3)NC(=O)[C@H](C)N(C)C(=O)COc3cccc2c3)cc1OC (stereo partly shown) [compound 56] |  |  | protected against genomic DNA cleavage |  |  |  |  |  |  |  | prevented genomic DNA cleavage |
| COc1ccc(CC[C@H]2OC(=O)[C@@H]3CCCCN3C(=O)C(=O)C(C)(C)COC(=O)C=CCCN(C)C(=O)[C@H](C)NC(=O)[C@H](C(C)C)N(C)C(=O)[C@@H](Cc3ccccc3)NC(=O)[C@H](CC(C)C)N(C)C(=O)CCC(=O)Nc3cccc2c3)cc1OC [compound 77] |  |  |  |  |  |  |  |  |  |  | prevented genomic DNA cleavage |
